Laboratory results from US6503534B1, “Pharmaceutical compositions for prolonged peptide release and preparation method” (Societe de Conseils de Recherches et d'Applications …, priority 1998, dated 2003).

Assay: Measurement of the specific surface area (B.E.T method)
Assay type: physicochemical
Conditions: lanreotide acetate recovered after flash freezing and lyophilization
Protocol: For all the following examples, the specific surface area of the peptide salt was determined by the so-called B.E.T method (absorption of a nitrogen monolayer on the active substance), a method well known to a person skilled in the art.

Row | Structure (SMILES) | Specific surface area obtained [m^2/g]
1 | CC(C)[C@@H]1NC(=O)[C@H](CCCCN)NC(=O)[C@@H](Cc2c[nH]c3ccccc23)NC(=O)[C@H](Cc2ccc(O)cc2)NC(=O)[C@@H](NC(=O)[C@H](N)Cc2ccc3ccccc3c2)CSSC[C@@H](C(=O)N[C@H](C(N)=O)[C@@H](C)O)NC1=O [Example 4, lanreotide acetate] | 43
2 | CC(C)[C@@H]1NC(=O)[C@H](CCCCN)NC(=O)[C@@H](Cc2c[nH]c3ccccc23)NC(=O)[C@H](Cc2ccc(O)cc2)NC(=O)[C@@H](NC(=O)[C@H](N)Cc2ccc3ccccc3c2)CSSC[C@@H](C(=O)N[C@H](C(N)=O)[C@@H](C)O)NC1=O [Example 3, lanreotide acetate] | 36
